What is called IC50 is the concentration needed to halve the response being measured.

The subject of series [1] is HEK293 cells. The series is described as follows: MTT cytotoxicity assay in HEK293 cells. The settings on record: Homo sapiens, 48 h of treatment, non-cancer. Format: cell-based. As to the method:
(§1) Dr. Dr. med. Sonja Loges (University Medical Center Hamburg-Eppendorf, Hamburg, Germany). Cells were cultured according to the manufacturers’ instructions and were recently authenticated by a commercial service (Multiplexion, Heidelberg, Germany). Culture conditions are described in the Supplementary Information.
(§2) MTT (3-(4,5-dimethylthiazol-2-yl)-2,5-diphenyltetrazolium bromide) cytotoxicity assay was used for the evaluation of cytotoxicity of the compounds or their combinations. Experiments were performed as previously described. In brief, 6000 cells/well were seeded in 96-well plate, incubated overnight, and treated with the drugs in 100 µL/well of 10% FBS/RPMI media containing 2 g/L of D-(+)-glucose for 48 h, unless otherwise stated. For 2 h treatment the cells were treated with the drugs for 2 h in the culture media, then the media was exchanged to fresh drug-free media (100 µL/well) containing MTT reagent and the further steps were performed as previously described.
On the technique in general: Tetrazolium dyes change colour on reduction, which living cells bring about.

The test system of series [2] is 22Rv1 cells. The series can be described thus: Trypan blue exclusion viability assay. The series is classed as cell-based. As to conditions: Homo sapiens, 48 h of treatment. As to the method: The in vitro effect of the drugs on cell viability and proliferation was evaluated using trypan blue exclusion assay as described before with minor modifications. In brief, cells (0.2 × 10^6 cells/well) were seeded in 12-well plates, incubated overnight, the media was replaced with fresh media (1 mL/well) and treated with the drugs for 48 h. Cells were harvested by trypsination and the viability was measured using trypan blue staining and Beckman Coulter Vi-CELL (Beckman Coulter, Krefeld, Germany).

In series [3] the test system is MRC-9 cells. The series can be described thus: MTT cytotoxicity assay in MRC-9 cells. The series is classed as cell-based. As to conditions: Homo sapiens, MRC9, 48 h of treatment, non-cancer. As for the experimental part:
as §1, §2

Series [4] deals with PNT2 cells. The series can be described thus: MTT cytotoxicity assay in PNT2 cells. The settings on record: 48 h of treatment. The series is classed as cell-based, human.
Description: (§3) For general experiments human prostate cancer cell lines PC-3 and DU145 (docetaxel-resistant, androgen-independent, AR-FL(−), AR-V7(−)), 22Rv1 and VCaP (docetaxel-sensitive, androgen-independent, AR-FL(+), AR-V7(+), and LNCaP (docetaxel sensitive, androgen-dependent, AR-FL(+), AR-V7(−) were used. PC-3, 22Rv1, LNCaP cells as well as the human prostate non-cancer cells PNT2 and RWPE-1 were purchased from ATCC (Manassas, VA, USA). VCaP were purchased from ECACC (Salisbury, UK). The human fibroblast cell line MRC-9, the human embryonic kidney cell line HEK 293T, as well as the human umbilical vascular endothelial cell line HUVEC were kindly donated by Prof. Dr. Dr. med. Sonja Loges (University Medical Center Hamburg-Eppendorf, Hamburg, Germany). Cells were cultured according to the manufacturers’ instructions and were recently authenticated by a commercial service (Multiplexion, Heidelberg, Germany). Culture conditions are described in the Supplementary Information.
as §2
(§4) Table S4. Cytotoxic activity of the synthesized compounds. Cytotoxicity was determined in human prostate cancer PC-3 cells versus human prostate non-cancer
(§5) PNT2 cells after 48 h of treatment, as well as its ratio. IC50 was evaluated using MTT assay. SI–selectivity index. #–the IC50s in both cell lines were >100 µM.
(§6) Anisomycin was used as a reference substance.
(§7) No Formula IC50(PC-3) IC50(PNT2) SI […]

Series [5] deals with VCaP cells. The series can be described thus: MTT cytotoxicity assay in VCaP cells. Format: cell-based. As to conditions: Homo sapiens, 48 h of treatment, cancer. As to the method: as §1, §2
The test system of series [6] is RWPE-1 cells. The series can be described thus: MTT cytotoxicity assay in RWPE-1 cells. As to conditions: Homo sapiens, 48 h of treatment, non-cancer. Format: cell-based. As for the experimental part:
as §1, §2

Series [7] relates to HUVEC cells. The series can be described thus: MTT cytotoxicity assay in HUVEC cells. Format: cell-based. As to conditions: Homo sapiens, 48 h of treatment, non-cancer. As to the method:
as §1, §2

Series [8] relates to DU145 cells. The series is described as follows: MTT cytotoxicity assay in DU145 cells. Format: cell-based. As to conditions: Homo sapiens, DU-145, 48 h of treatment, cancer. As for the experimental part:
as §1, §2

The subject of series [9] is 22Rv1 cells. The series is described as follows: Western blotting of treated cells. The settings on record: for LC3B-II and SQSTM1 levels (autophagy markers): pre-cytotoxic and cytotoxic concentrations, 48 h. Format: cell-based, human. As to the method: (§8) Preparation of protein extracts for western blotting was performed as described previously. In brief, for western blotting, 1 × 10^6 cells/well were seeded in Petri dishes (ø 6 cm TC Dish (Sarstedt, Numbrecht, Germany) in 5 mL/dish), incubated overnight and treated with drugs in 5 mL/dish for an indicated time. Cells were harvested using a cell scraper, pelleted, and resuspended in the lysis buffer containing protease and phosphatase inhibitors. Further sample preparation and western blotting were performed as previously described with slight modifications. Relative optical density of the detected bands was quantified with Quantity One 4.6 software (Bio-Rad, Hercules, CA, USA). The primary and secondary antibodies used are listed in the Supplementary Information.

The subject of series [10] is 22Rv1 cells. The series can be described thus: MTT cytotoxicity assay in 22Rv1 cells. The series is classed as cell-based, human. The settings on record: for IC50: Homo sapiens. As to the method: as §1, §2
Series [11] deals with 22Rv1 cells. The series is described as follows: Colony formation assay. The series is classed as cell-based, human. The settings on record: 22Rv1 cells treated with non-cytotoxic concentrations for 48 h. As to the method: Colony formation assays were performed as described before. In brief, cells were treated with the drugs for 48 h and then 100 alive cells were plated into each well of 6-well plates and incubated for 10 days. Surviving colonies were fixed, stained with Giemsa solution and counted.

Series [12] concerns LNCaP cells. The series is described as follows: MTT cytotoxicity assay in LNCaP cells. The series is classed as cell-based. As to conditions: Homo sapiens, 48 h of treatment, cancer. As to the method:
as §1, §2

The subject of series [13] is 22Rv1 cells. The series is described as follows: Mitochondrial membrane potential assay (JC-1, flow cytometry). The series is classed as cell-based, human. As to conditions: 2 h of treatment. As to the method: The loss of mitochondrial membrane potential (Δψ) was measured by flow cytometry technique using staining with Δψ-sensitive dye JC-1 (5,5′,6,6′-tetrachloro-1,1′,3,3′-tetraethylimidacarbocyanine iodide). Cells were seeded in 12-well plates (100 × 10^3 cells/well in 1 mL/well) and incubated overnight. Then, the media was changed to PBS (1 mL/well) containing the investigational drugs. After 2 h of incubation (37 °C, 5% CO2, in the dark) the cells were trypsinized, pelleted, resuspended in 100 µL of 2 µM JC-1/PBS, incubated for 1 h (37 °C, 5% CO2, in the dark) and Δψ loss was measured by flow cytometry technique.
(Flow cytometry measures light scatter and fluorescence of single cells or particles in a stream.)

The test system of series [14] is PC-3 cells. The series is described as follows: MTT cytotoxicity assay in PC-3 cells. As to conditions: for IC50: 48 h of treatment; for SI [IC50(PNT2) / IC50(PC-3)]: ratio of IC50 in PNT2 cells to IC50 in PC-3 cells, 48 h. The series is classed as cell-based, human.
Description: as §3, §2, §4, §5, §6, §7

Series [15] deals with 22Rv1 cells. The series can be described thus: Cell fractionation followed by Western blotting. The series is classed as cell-based, human. As to conditions: 48 h. As for the experimental part:
as §8
22Rv1 cells were seeded in T75 culture bottles (4 × 10^6 cells/bottle in 20 mL/bottle), treated for 48 h and harvested by scratching. The further separation of cytosolic, mitochondrial and nuclear fractions was performed using the Cell Fractionation Kit ab109719 (abcam, Cambridge, MA) as previously described. Mitochondrial and cytosolic fractions were concentrated using Amicon® Ultra-2 Centrifugal Filter device (Cat. No. UFC203024, Merck, Darmstadt, Germany). Nuclear fractions were additionally homogenized using QIAshedder kit (QIAGEN, Hilden, Germany).
(In general: A western blot detects proteins with antibodies after separation by electrophoresis.)

For series [16], the system named is 22Rv1 cells. The series is described as follows: Intracellular ROS (CM-H2DCFDA, flow cytometry). Format: cell-based, human. The settings on record: 2 h of treatment. As to the method: Intracellular ROS levels were estimated using the ROS-sensitive CM-H2DCFDA reagent (Cat. No. C6827, Molecular probes, Invitrogen, Eugene, OR, USA) as described before. In brief, 22Rv1 cells were seeded in 12-well plates (0.2 × 10^6 cells/well in 1 mL/well of media) and incubated overnight. The media was changed into freshly made pre-warmed 4 µM CM-H2DCFDA/PBS (0.5 mL/well) and incubated for 30 min (37 °C, 5% CO2, in the dark). Then, the CM-H2DCFDA solution was exchanged with 1 mL/well of pre-warmed PBS containing the drugs or H2O2 (positive control) at the indicated concentrations. After 2 h of incubation the cells were trypsinized and immediately analyzed by flow cytometry technique according to the manufacture’s protocols.

The test system of series [17] is human prostate cancer cell lines and human non-cancer cell lines. The series is described as follows: MTT cytotoxicity profile in five prostate cancer versus five non-cancer cell lines. The settings on record: 48 h. Format: cell-based.
Description: as §3
MTT (3-(4,5-dimethylthiazol-2-yl)-2,5-diphenyltetrazolium bromide) cytotoxicity assay was used for the evaluation of cytotoxicity of the compounds or their combinations. Experiments were performed as previously described. […]

Where [18] appears, read: 22Rv1, 48 h of treatment, cancer, read-out: IC50 (22Rv1).
[19] abbreviates: 22Rv1 cells, 2 h treatment, read-out: IC50 after 2 h of treatment.

The structures appear in SMILES notation.

Turning to `O=C1C(OC[C@H]2OC(O)[C@H](O)[C@@H](O)[C@@H]2O)=CC(=O)c2c(O)cccc21` (some centres unmarked) [Compound 8], the IC50 in [1] was 40 µM; in series [2] it was 19.4 µM; in series [3] it was 31.6 µM; in series [4] it was 73.7 µM; in [4] (Homo sapiens, PNT2, 48 h) it was 79.3 µM; in [5], 56.7 µM. Besides, the IC50 was found to be 49.8 µM in series [6]; 73 µM in [7]; 10.6 µM in series [8]; 30.1 µM in series [10] (setting [18]); 92.4 µM in series [10] (setting [19]); 20 µM in series [12]. The “AR-FL and AR-V7 expression” value in [9] (48 h treatment) is “downregulated both, AR full length (AR-FL) and AR-V7”. Also, the “LC3B-II and SQSTM1 levels (autophagy markers)” value in series [9] was “accumulation of both, LC3B-II and SQSTM1”. In series [11], the “cancer cell colony formation” value is “suppress cancer cell colony formation”.
Take `CC1(C)OC2OC(C(O)COC3=CC(=O)c4c(O)cccc4C3=O)C(O)C2O1` (centres unmarked) [Compound 7]: the IC50 in [1] was determined as 3.57 µM; in series [2], 3.49 µM; in [3] it was 5.77 µM; in series [4] (Homo sapiens, PNT2, 48 h) it was 7.29 µM; in series [5], 8.06 µM; in [6], 3.39 µM. The IC50 was 9.04 µM in series [7]; 0.84 µM in [8]; 6.1 µM in series [14] (Homo sapiens, PC-3, 48 h); 1.61 µM in series [10] (setting [18]); 24.2 µM in [10] (setting [19]); 2.19 µM in [12]. For the same compound, the “effect on ΔΨm” value in series [13] is given as “quick ΔΨm loss”. In [14], the “SI [IC50(PNT2) / IC50(PC-3)]” value worked out at 1.20. In series [15], the “release of mitochondrial proteins AIF and cytochrome C” value was “release of mitochondrial proteins”. The “effect on ROS level” value in series [16] was “remarkable and significant increase of the ROS level”. In addition, in [9] (2 h and 48 h treatment), the “cleavage of caspase-9” value was “observed already after 2 h”. In addition, in [9] (48 h treatment), the “AR-FL and AR-V7 expression” value was “downregulated both, AR full length (AR-FL) and AR-V7”. In addition, the “Bax and Bcl-2 expression” value in [9] (48 h treatment) is “up-regulation of Bax and down-regulation of Bcl-2”. The “LC3B-II and SQSTM1 levels (autophagy markers)” value in [9] is “accumulation of both, LC3B-II and SQSTM1”. Further, the “effect of N-acetyl-L-cysteine pre-treatment on cytotoxic activity” value in [10] (22Rv1 cells, 1 mM NaC 1 h then co-treatment 48 h, FBS- and glucose-free RPMI) is “significantly suppressed the cytotoxic activity”. Besides, the “cancer cell colony formation” value in series [11] is “suppress cancer cell colony formation”.
Consider `COc1ccc(C[C@H]2NC[C@H](O)[C@H]2OC(C)=O)cc1` [Anisomycin, anisomycin, reference compound], for which, in [4], the IC50 was 0.7 µM. In series [14], the IC50 was determined as 1.49 µM and the “SI [IC50(PNT2) / IC50(PC-3)]” value was 0.47. Moreover, the “selectivity to prostate cancer cell lines versus non-cancer cell lines” value in [17] is recorded as “no selectivity was found”.

Values taken from publication PMC6896172, “Successful Targeting of the Warburg Effect in Prostate Cancer by Glucose-Conjugated 1,4-Naphthoquinones” (Cancers, 2019).
